{"source": "ChEMBL document CHEMBL1155621", "about": "“Asitrocin, (2,4)-cis- and trans-asitrocinones: novel bioactive mono-tetrahydrofuran acetogenins from Asimina triloba seeds” (J Nat Prod, 2000)", "key": {"[1]": {"assay": "Toxicity in brine shrimp", "assay_type": "organism-based", "settings": "artemia, in vivo"}, "[2]": {"system": "PC-3", "assay": "Cytotoxicity against human PC3 cells after 7 days by MTT assay", "assay_type": "functional", "settings": "PC-3, 168 h, read-out: ED50 (the source's name)"}, "[3]": {"system": "A549", "assay": "Cytotoxicity against human A549 cells after 7 days by MTT assay", "assay_type": "functional", "settings": "A549, 168 h, read-out: ED50 (the source's name)"}, "[4]": {"system": "A498", "assay": "Cytotoxicity against human A498 cells after 7 days by MTT assay", "assay_type": "functional", "settings": "A498, 168 h, read-out: ED50 (the source's name)"}, "[5]": {"system": "MCF7", "assay": "Cytotoxicity against human MCF7 cells after 7 days by MTT assay", "assay_type": "functional", "settings": "MCF7, 168 h, read-out: ED50 (the source's name)"}, "[6]": {"system": "HT-29", "assay": "Cytotoxicity against human HT29 cells after 7 days by MTT assay", "assay_type": "functional", "settings": "HT-29, 168 h, read-out: ED50 (the source's name)"}, "[7]": {"system": "MIA PaCa-2", "assay": "Cytotoxicity against human MiaPaCa2 cells after 7 days by MTT assay", "assay_type": "functional", "settings": "MIA PaCa-2, 168 h, read-out: ED50 (the source's name)"}}}
{"smiles": "CCCCCCCCCCCC[C@@H](O)[C@H]1CC[C@H]([C@@H](O)CC[C@H](O)CCCCCCC[C@@H](O)CC2=C[C@H](C)OC2=O)O1", "note": "[ASITROCIN]", "values": [{"measurement": "LC50", "setting": "[1]", "result": 63, "unit": "ng/mL"}, {"measurement": "EC50", "setting": "[2]", "result": 1.22, "unit": "ng/mL"}, {"measurement": "EC50", "setting": "[3]", "result": 118, "unit": "ng/mL"}, {"measurement": "EC50", "setting": "[4]", "result": 79.2, "unit": "ng/mL"}, {"measurement": "EC50", "setting": "[5]", "result": 3280, "unit": "ng/mL"}, {"measurement": "EC50", "setting": "[6]", "result": 2.99, "unit": "ng/mL"}, {"measurement": "EC50", "setting": "[7]", "result": 0.0148, "unit": "ng/mL"}]}
{"smiles": "COc1cccc2c1C(=O)c1c(O)c3c(c(O)c1C2=O)C[C@@](O)(C(=O)CO)C[C@@H]3O[C@H]1C[C@H](N)[C@H](O)[C@H](C)O1", "note": "[DOXORUBICIN]", "values": [{"measurement": "EC50", "setting": "[7]", "result": 6.1, "unit": "ng/mL"}]}
